Reference: patent publication US20230085307A1, “PYRIDAZINONE COMPOUND AND HERBICIDE” (NISSAN CHEMICAL CORPORATION, priority 2019, published 2023)

Legend:
late watergrass = test: Test Example 2: herbicidal activity, application during weed generation under submerged conditions (Table 17, symbol A); assay type: in vivo, late watergrass (Echinochloa oryzicola); conditions: AAH 320 g/ha; application during weed generation, submerged conditions
Summary of the method: (§1)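 Herbicide emulsion, diluted with water to the chosen amount, is applied onto 4 cm floodwater over alluvial soil where the weeds were co-sown and raised at 25–30° C. Application timing: 1–2 leaves. Assessment: three weeks afterwards.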

Japanese bulrush = test: Test Example 2: herbicidal activity, application during weed generation under submerged conditions (Table 17, symbol B); assay type: in vivo, Japanese bulrush (Schoenoplectus juncoides); conditions: AAH 320 g/ha; application during weed generation, submerged conditions
Summary of the method: as §1

oval-leafed pondweed = test: Test Example 2: herbicidal activity, application during weed generation under submerged conditions (Table 17, symbol C); assay type: in vivo, oval-leafed pondweed (Monochoria vaginalis); conditions: AAH 320 g/ha; application during weed generation, submerged conditions
Summary of the method: as §1

barnyard grass [1] = test: Test Example 3: herbicidal effect by foliage application, Wagner pot (Table 18, symbol H); assay type: in vivo, barnyard grass (Echinochloa crus-galli); conditions: 320 g/ha
Summary of the method: (§2)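 Plants were sown in alluvial soil held under 0.1–0.5 cm standing water and grown 14 days in a greenhouse at 25–30 °C. An emulsifiable formulation, water-diluted to the set dose, was then sprayed onto the foliage, and effects were scored three weeks later using previously defined criteria.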

Chinese sprangletop = test: Test Example 3: herbicidal effect by foliage application, Wagner pot (Table 18, symbol D); assay type: in vivo, chinese sprangletop (Leptochloa chinensis); conditions: 320 g/ha
Summary of the method: as §2

rice flat sedge = test: Test Example 3: herbicidal effect by foliage application, Wagner pot (Table 18, symbol E); assay type: in vivo, rice flat sedge (Cyperus iria); conditions: 320 g/ha
Summary of the method: as §2

southern crabgrass [2] = test: Test Example 4: herbicidal effect by soil treatment (Table 19, symbol F); assay type: in vivo, southern crabgrass (Digitaria ciliaris); conditions: 320 g/ha
Summary of the method: (§3)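 Applied as a water-diluted emulsion, the compound was sprayed onto soil covering newly sown seeds. Evaluation came three weeks after application, in a greenhouse held at 25° C. to 30° C.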

green foxtail [3] = test: Test Example 4: herbicidal effect by soil treatment (Table 19, symbol G); assay type: in vivo, green foxtail (Setaria viridis); conditions: 320 g/ha
Summary of the method: as §3

barnyard grass [4] = test: Test Example 4: herbicidal effect by soil treatment (Table 19, symbol H); assay type: in vivo, barnyard grass (Echinochloa crus-galli); conditions: 320 g/ha
Summary of the method: as §3

wild oat [5] = test: Test Example 4: herbicidal effect by soil treatment (Table 19, symbol I); assay type: in vivo, wild oat (Avena fatua); conditions: 320 g/ha
Summary of the method: as §3

blackgrass [6] = test: Test Example 4: herbicidal effect by soil treatment (Table 19, symbol J); assay type: in vivo, blackgrass (Alopecurus myosuroides); conditions: 320 g/ha
Summary of the method: as §3

Italian ryegrass [7] = test: Test Example 4: herbicidal effect by soil treatment (Table 19, symbol K); assay type: in vivo, Italian ryegrass (Lolium multiflorum); conditions: 320 g/ha
Summary of the method: as §3

windgrass [8] = test: Test Example 4: herbicidal effect by soil treatment (Table 19, symbol L); assay type: in vivo, windgrass (Apera spica-venti); conditions: 320 g/ha
Summary of the method: as §3

velvetleaf [9] = test: Test Example 4: herbicidal effect by soil treatment (Table 19, symbol M); assay type: in vivo, velvetleaf (Abutilon theophrasti); conditions: 320 g/ha
Summary of the method: as §3

redroot pigweed [10] = test: Test Example 4: herbicidal effect by soil treatment (Table 19, symbol N); assay type: in vivo, redroot pigweed (Amaranthus retroflexus); conditions: 320 g/ha
Summary of the method: as §3

lambsquarters [11] = test: Test Example 4: herbicidal effect by soil treatment (Table 19, symbol O); assay type: in vivo, lambsquarters (Chenopodium album); conditions: 320 g/ha
Summary of the method: as §3

chickweed [12] = test: Test Example 4: herbicidal effect by soil treatment (Table 19, symbol P); assay type: in vivo, common chickweed (Stellaria media); conditions: 320 g/ha
Summary of the method: as §3

persian speedwell [13] = test: Test Example 4: herbicidal effect by soil treatment (Table 19, symbol R); assay type: in vivo, Persian speedwell (Veronica persica); conditions: 320 g/ha
Summary of the method: as §3

southern crabgrass [14] = test: Test Example 5: herbicidal effect by foliage application, plastic box (Table 20, symbol F); assay type: in vivo, southern crabgrass (Digitaria ciliaris); conditions: foliage application, 320 g/ha, evaluated three weeks after application
Summary of the method: (§4)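 Sow seeds spot-wise in sterilized diluvial soil; cover with ~1.5 cm soil. Grow 14 days in greenhouse, 25° C. to 30° C. Spray foliage with emulsion diluted to predetermined amount. Rate effect after 3 weeks.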

green foxtail [15] = test: Test Example 5: herbicidal effect by foliage application, plastic box (Table 20, symbol G); assay type: in vivo, green foxtail (Setaria viridis); conditions: foliage application, 320 g/ha, evaluated three weeks after application
Summary of the method: as §4

barnyard grass [16] = test: Test Example 5: herbicidal effect by foliage application, plastic box (Table 20, symbol H); assay type: in vivo, barnyard grass (Echinochloa crus-galli); conditions: foliage application, 320 g/ha, evaluated three weeks after application
Summary of the method: as §4

wild oat [17] = test: Test Example 5: herbicidal effect by foliage application, plastic box (Table 20, symbol I); assay type: in vivo, wild oat (Avena fatua); conditions: foliage application, 320 g/ha, evaluated three weeks after application
Summary of the method: as §4

blackgrass [18] = test: Test Example 5: herbicidal effect by foliage application, plastic box (Table 20, symbol J); assay type: in vivo, blackgrass (Alopecurus myosuroides); conditions: foliage application, 320 g/ha, evaluated three weeks after application
Summary of the method: as §4

Italian ryegrass [19] = test: Test Example 5: herbicidal effect by foliage application, plastic box (Table 20, symbol K); assay type: in vivo, Italian ryegrass (Lolium multiflorum); conditions: foliage application, 320 g/ha, evaluated three weeks after application
Summary of the method: as §4

windgrass [20] = test: Test Example 5: herbicidal effect by foliage application, plastic box (Table 20, symbol L); assay type: in vivo, windgrass (Apera spica-venti); conditions: foliage application, 320 g/ha, evaluated three weeks after application
Summary of the method: as §4

velvetleaf [21] = test: Test Example 5: herbicidal effect by foliage application, plastic box (Table 20, symbol M); assay type: in vivo, velvetleaf (Abutilon theophrasti); conditions: foliage application, 320 g/ha, evaluated three weeks after application
Summary of the method: as §4

redroot pigweed [22] = test: Test Example 5: herbicidal effect by foliage application, plastic box (Table 20, symbol N); assay type: in vivo, redroot pigweed (Amaranthus retroflexus); conditions: foliage application, 320 g/ha, evaluated three weeks after application
Summary of the method: as §4

lambsquarters [23] = test: Test Example 5: herbicidal effect by foliage application, plastic box (Table 20, symbol O); assay type: in vivo, lambsquarters (Chenopodium album); conditions: foliage application, 320 g/ha, evaluated three weeks after application
Summary of the method: as §4

chickweed [24] = test: Test Example 5: herbicidal effect by foliage application, plastic box (Table 20, symbol P); assay type: in vivo, common chickweed (Stellaria media); conditions: foliage application, 320 g/ha, evaluated three weeks after application
Summary of the method: as §4

persian speedwell [25] = test: Test Example 5: herbicidal effect by foliage application, plastic box (Table 20, symbol R); assay type: in vivo, Persian speedwell (Veronica persica); conditions: foliage application, 320 g/ha, evaluated three weeks after application
Summary of the method: as §4

## CC(=O)COc1ccc(-c2sc3ccc(F)cc3c2-c2c(O)c(C)nn(C)c2=O)cc1 [2-068]
Late watergrass
  herbicidal effect rating, A: late watergrass: 2 (Herbicidal rate of 20% or more and less than 40%)
Japanese bulrush
  herbicidal effect rating, B: Japanese bulrush: 3 (Herbicidal rate of 40% or more and less than 70%)
oval-leafed pondweed
  herbicidal effect rating, C: oval-leafed pondweed: 3 (Herbicidal rate of 40% or more and less than 70%)
Barnyard grass [1]
  herbicidal effect on H (barnyard grass), rating 0-5: 5 (Herbicidal rate of 90% or more (almost completely withered))
Chinese sprangletop
  herbicidal effect on D (Chinese sprangletop), rating 0-5: 4 (Herbicidal rate of 70% or more and less than 90%)
Rice flat sedge
  herbicidal effect on E (rice flat sedge), rating 0-5: 5 (Herbicidal rate of 90% or more (almost completely withered))
Southern crabgrass [2]
  herbicidal effect rating, F: southern crabgrass: 1 (Herbicidal rate of 5% or more and less than 20%)
Green foxtail [3]
  herbicidal effect rating, G: green foxtail: 4 (Herbicidal rate of 70% or more and less than 90%)
Barnyard grass [4]
  herbicidal effect rating, H: barnyard grass: 3 (Herbicidal rate of 40% or more and less than 70%)
Wild oat [5]
  herbicidal effect rating, I: wild oat: 0 (Herbicidal rate of 5% or less (almost no effect))
Blackgrass [6]
  herbicidal effect rating, J: blackgrass: 0 (Herbicidal rate of 5% or less (almost no effect))
Italian ryegrass [7]
  herbicidal effect rating, K: Italian ryegrass: 0 (Herbicidal rate of 5% or less (almost no effect))
Windgrass [8]
  herbicidal effect rating, L: windgrass: 0 (Herbicidal rate of 5% or less (almost no effect))
Velvetleaf [9]
  herbicidal effect rating, M: velvetleaf: 5 (Herbicidal rate of 90% or more (almost completely withered))
Redroot pigweed [10]
  herbicidal effect rating, N: redroot pigweed: 5 (Herbicidal rate of 90% or more (almost completely withered))
Lambsquarters [11]
  herbicidal effect rating, O: lambsquarters: 4 (Herbicidal rate of 70% or more and less than 90%)
Chickweed [12]
  herbicidal effect rating, P: chickweed: 0 (Herbicidal rate of 5% or less (almost no effect))
Persian speedwell [13]
  herbicidal effect rating, R: persian speedwell: 4 (Herbicidal rate of 70% or more and less than 90%)
Southern crabgrass [14]
  herbicidal effect on F: southern crabgrass: 5 (Herbicidal rate of 90% or more (almost completely withered))
Green foxtail [15]
  herbicidal effect on G: green foxtail: 5 (Herbicidal rate of 90% or more (almost completely withered))
Barnyard grass [16]
  herbicidal effect on H: barnyard grass: 5 (Herbicidal rate of 90% or more (almost completely withered))
Wild oat [17]
  herbicidal effect on I: wild oat: 4 (Herbicidal rate of 70% or more and less than 90%)
Blackgrass [18]
  herbicidal effect on J: blackgrass: 4 (Herbicidal rate of 70% or more and less than 90%)
Italian ryegrass [19]
  herbicidal effect on K: Italian ryegrass: 3 (Herbicidal rate of 40% or more and less than 70%)
Windgrass [20]
  herbicidal effect on L: windgrass: 5 (Herbicidal rate of 90% or more (almost completely withered))
Velvetleaf [21]
  herbicidal effect on M: velvetleaf: 5 (Herbicidal rate of 90% or more (almost completely withered))
Redroot pigweed [22]
  herbicidal effect on N: redroot pigweed: 5 (Herbicidal rate of 90% or more (almost completely withered))
Lambsquarters [23]
  herbicidal effect on O: lambsquarters: 5 (Herbicidal rate of 90% or more (almost completely withered))
Chickweed [24]
  herbicidal effect on P: chickweed: 5 (Herbicidal rate of 90% or more (almost completely withered))
Persian speedwell [25]
  herbicidal effect on R: persian speedwell: 5 (Herbicidal rate of 90% or more (almost completely withered))
